This test has as its target T1, BRD4 BD2 (Homo sapiens, UniProt O60885, Y97A).
T1 construct: BRD4 (1-477) (Y97A) and (Y390A); made in house; host or cells: E. coli (pET15b vector)
The test is described as follows: TR-FRET binding assay, BRD4 BD2 (BD1-mutated protein). As to conditions: read-out: pIC50 in the BRD4 BD2 assay (converted). In outline:
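Displacement of Alexa Fluor647-labelled bromodomain ligand (at Kd) from 10 nM His-tagged BRD4 (1-477, Y97A) read by Eu-anti-His TR-FRET (665/615 ratio) in pH 7.4 HEPES buffer, 0.5% DMSO. Compound preincubated 30 min at rt, detection ≥30 min. pIC50 derived from four-parameter fit after normalisation to controls.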
(In general: In TR-FRET formats the signal depends on donor and acceptor labels being close together.)
As for `CCNC(=O)c1ccc2c(c1)[C@H](Nc1cccc(C)n1)[C@@H](C)[C@H](CC)N2C(C)=O` (racemic) [Example 279, rac-(2S,3R,4R)-1-acetyl-N,2-diethyl-3-methyl-4-((6-methylpyridin-2-yl)amino)-1,2,3,4-tetrahydroquinoline-6-carboxamide], the IC50 is 100 nM.
With `CC[C@H]1[C@H](C)[C@@H](Nc2cccc(C)n2)c2cc(C(=O)NCCC#N)ccc2N1C(C)=O` (racemic) [Example 283, rac-(2S,3R,4R)-1-acetyl-N-(2-cyanoethyl)-2-ethyl-3-methyl-4-((6-methylpyridin-2-yl)amino)-1,2,3,4-tetrahydroquinoline-6-carboxamide], the IC50 was 100 nM.
The same measure for `CC[C@H]1[C@H](C)[C@@H](Nc2cccc(C)n2)c2cc(C(=O)NC(C)C)ccc2N1C(C)=O` (racemic) [Example 285, rac-(2S,3R,4R)-1-acetyl-2-ethyl-N-isopropyl-3-methyl-4-((6-methylpyridin-2-yl)amino)-1,2,3,4-tetrahydroquinoline-6-carboxamide]: 100 nM.
Take `CC(=O)OC[C@@H]1[C@@H](Nc2ccccc2)c2ccccc2N(C(C)=O)[C@H]1C1CC1` (racemic) [Example 591, rac-((2S,3R,4R)-1-acetyl-2-cyclopropyl-4-(phenylamino)-1,2,3,4-tetrahydroquinolin-3-yl)methyl acetate]: the IC50 is 1000 to 100000 nM.
Take `CC(=O)N1c2ccccc2[C@H](Nc2ccccc2)[C@@H](CO)[C@@H]1C1CC1` (racemic) [Example 592, rac-1-((2S,3R,4R)-2-cyclopropyl-3-(hydroxymethyl)-4-(phenylamino)-3,4-dihydroquinolin-1(2H)-yl)ethanone]: the IC50 was 1000 to 100000 nM.
Turning to `COc1cc2c(cc1C(N)=O)[C@H](Nc1nccc(C)n1)[C@@H](C)[C@H](C1CC1)N2C(C)=O` (racemic) [Example 593, rac-(2S,3R,4R)-1-acetyl-2-cyclopropyl-7-methoxy-3-methyl-4-((4-methylpyrimidin-2-yl)amino)-1,2,3,4-tetrahydroquinoline-6-carboxamide], the IC50 was 1000 to 100000 nM.
With `CC(=O)N1c2ccncc2C(Nc2nccc(C)n2)C(C)C1C1CC1` (racemic) [Example 598b, rac-1-((2,3,4 unknown)-2-cyclopropyl-3-methyl-4-((4-methylpyrimidin-2-yl)amino)-3,4-dihydro-1,6-naphthyridin-1(2H)-yl)ethanone], the IC50 is 1000 to 100000 nM.
To `CC[C@H]1[C@H](C)[C@@H](Nc2cccc(C)n2)c2ccccc2N1C(C)=O` (single isomer, unassigned) [Example 25a] belongs 100 nM; to `CC[C@@H]1[C@@H](C)[C@H](Nc2cccc(C)n2)c2ccccc2N1C(C)=O` (single isomer, unassigned) [Example 25b], 1000 to 100000 nM.
The same measure for `CC(=O)N1c2ccccc2[C@H](Nc2ccccc2)[C@@H](C)[C@@H]1C1CC1` (single isomer, unassigned) [Example 27a]: 100 nM.
On to `CC(=O)N1c2ccccc2[C@@H](Nc2ccccc2)[C@H](C)[C@H]1C1CC1` (single isomer, unassigned) [Example 27b], for which the IC50 is 1000 to 100000 nM.
`CC(=O)N1c2ccccc2[C@H](Nc2cccc(C)n2)[C@@H](C)[C@@H]1C1CC1` (single isomer, unassigned) [Example 29a]: the IC50 was 100 nM.
To `CC(=O)N1c2ccccc2[C@@H](Nc2cccc(C)n2)[C@H](C)[C@H]1C1CC1` (single isomer, unassigned) [Example 29b] belongs 1000 to 100000 nM.
To `CC(=O)N1c2ccc(N3CCOCC3)cc2[C@H](Nc2ccccc2)[C@@H](C)[C@@H]1C` (single isomer, unassigned) [Example 71a] belongs 1000 to 100000 nM; to `CC(=O)N1c2ccc(N3CCOCC3)cc2[C@@H](Nc2ccccc2)[C@H](C)[C@H]1C` (single isomer, unassigned) [Example 71b], 100 nM; to `CC(=O)N1c2ccc(N3CCOCC3)cc2[C@@H](Nc2ccccc2)[C@H](C)[C@H]1C1CC1` (single isomer, unassigned) [Example 91b], 1000 to 100000 nM.
To `CC(=O)N1c2cccnc2[C@H](Nc2ccccc2)[C@@H](C)[C@@H]1C1CC1` (single isomer, unassigned) [Example 102b] belongs 1000 to 100000 nM; to `CC(=O)N1c2cccnc2[C@@H](Nc2cccc(C)n2)[C@H](C)[C@H]1C1CC1` (single isomer, unassigned) [Example 114b], 1000 to 100000 nM; to `COCCn1cc(-c2ccc3c(c2)[C@H](Nc2cccc(C)n2)[C@@H](C)[C@H](C2CC2)N3C(C)=O)cn1` (single isomer, unassigned) [Example 136a], 100 nM.
For `COCCn1cc(-c2ccc3c(c2)[C@H](Nc2cnc(C)cn2)[C@@H](C)[C@H](C2CC2)N3C(C)=O)cn1` (single isomer, unassigned) [Example 138a], the IC50 is 100 nM.
As for `COCCn1cc(-c2ccc3c(c2)[C@@H](Nc2cnc(C)cn2)[C@H](C)[C@@H](C2CC2)N3C(C)=O)cn1` (single isomer, unassigned) [Example 138b], the IC50 is 1000 to 100000 nM.
Take `CC[C@H]1[C@H](C)[C@@H](Nc2cccc(C)n2)c2cc(F)ccc2N1C(C)=O` (single isomer, unassigned) [Example 146a]: the IC50 is 100 nM.
To `CC[C@@H]1[C@@H](C)[C@H](Nc2cccc(C)n2)c2cc(F)ccc2N1C(C)=O` (single isomer, unassigned) [Example 146b] belongs 1000 to 100000 nM; to `CC[C@H]1[C@H](C)[C@@H](Nc2ccc(C#N)cc2)c2cc(F)ccc2N1C(C)=O` (single isomer, unassigned) [Example 147a], 1000 to 100000 nM.
`CC[C@@H]1[C@@H](C)[C@H](Nc2ccc(C#N)cc2)c2cc(F)ccc2N1C(C)=O` (single isomer, unassigned) [Example 147b]: the IC50 was 100 nM.
As for `CC(=O)N1c2ccc(C3=CCNCC3)cc2[C@H](Nc2cccc(C)n2)[C@@H](C)[C@@H]1C1CC1` (single isomer, unassigned) [Example 189a], the IC50 was 100 nM.
Take `CC(=O)N1c2ccc(C3=CCNCC3)cc2[C@@H](Nc2cccc(C)n2)[C@H](C)[C@H]1C1CC1` (single isomer, unassigned) [Example 189b]: the IC50 is 1000 to 100000 nM.
The same measure for `CNC(=O)c1ccc2c(c1)[C@H](Nc1cccc(C)n1)[C@@H](C)[C@H](C1CC1)N2C(C)=O` (single isomer, unassigned) [Example 239a]: 100 nM.
Consider `CNC(=O)c1ccc2c(c1)[C@@H](Nc1cccc(C)n1)[C@H](C)[C@@H](C1CC1)N2C(C)=O` (single isomer, unassigned) [Example 239b], for which the IC50 was 1000 to 100000 nM.
To `CC(=O)N1c2ccc(C(N)=O)cc2[C@@H](Nc2nccc(C)n2)[C@H](C)[C@H]1C1CC1` (single isomer, unassigned) [Example 397] belongs 1000 to 100000 nM.
To `CNC(=O)c1ccc(N[C@@H]2c3cc(C4=CCOCC4)ccc3N(C(C)=O)[C@H](C3CC3)[C@H]2C)cc1` (single isomer, unassigned) [Example 551a] belongs 1000 to 100000 nM; to `CC(=O)N1c2ccc(N3CCOCC3)cc2[C@H](Nc2ccccc2)[C@@H](C)[C@@H]1C1CC1` [Example 91a, 1-((2S,3R,4R)-2-cyclopropyyl-3-methyl-6-morpholino-4-(phenylamino)-3,4-dihydroquinolin-1(2H)-yl)ethanone], 100 nM.

The record behind these values is patent publication US11478478B2, “2,3-disubstituted 1-acyl-4-amino-1,2,3,4-tetrahydroquinoline derivatives and their use as bromodomain inhibitors” (GLAXOSMITHKLINE INTELLECTUAL PROPERTY (NO.2) LIMITED, priority 2013, dated 2022).
